The values below come from US20090197859A1 (Pfizer Inc., priority 2008, published 2009).

SMILES strings stand for the structures.

The assay deals with T1, cloned human 5-HT6 receptor (Homo sapiens, UniProt P50406).
T1 construct: host or cells: HeLa cells, G-418 selection, membrane preparation
The experiment in a line: 5-HT6 Receptor Binding Assay ([3H]-LSD radioligand, SPA). The settings on record: read-out: 5HT6 % inh @ 1 uM. The protocol:
5-HT6 Receptor Binding Assay
Hela cells containing the cloned human 5-HT6 receptor were acquired from Dr. David R. Sibley's laboratory in National Institute of Health (see Sibley, D. R., J. Neurochemistry, 66, 47-56, 1996). Cells were grown in high glucose Dulbecco's modified Eagle's medium, supplemented with L-glutamine, 0.5% sodium pyruvate, 0.3% penicillin-streptomycin, 0.025% G-418 and 5% Gibco fetal bovine serum and then were harvested, when confluent, in cold phosphate buffered saline.
Harvested intact cells were washed once in cold phosphate-buffered saline. The cells were pelleted and resuspended in 100 ml of cold 50 mM Tris, 5 mM EDTA and 5 mM EGTA, pH 7.4. Homogenization was with a Vir Tishear generator, 4 cycles for 30 seconds each at setting 50. The homogenized cells were centrifuged at […] for 10 minutes and the supernatant was removed. The pellet was resuspended in 100 ml of the above buffer and rehomogenized for 2 cycles. The rehomogenized cells were then centrifuged at […] for 10 minutes and the supernatant was removed. The combined supernatant (200 ml) was centrifuged at 23,000 RPM (80,000×g) for 1 hour in a Beckman Rotor (42.1 Ti). The membrane pellet was resuspended in […] of assay buffer containing HEPES 20 mM, MgCl2 10 mM, NaCl 150 mM, EDTA 1 mM, pH 7.4 and stored frozen in aliqouts at −70° C.
The radioligand binding assay used [^3H]-lysergic acid diethylamide (LSD). The assay was carried out in Wallac 96-well sample plates by the addition of 11 μl of the test sample at the appropriate dilution (the assay employed 11 serial concentrations of samples run in duplicate), 11 μl of radioligand, and 178 μl of a washed mixture of WGA-coated SPA beads and membranes in binding buffer. The plates were shaken for about 5 minutes and then incubated at room temperature for 1 hour. The plates were then loaded into counting cassettes and counted in a Wallac MicroBeta Trilux scintillation counter.
Binding Constant Determination may be obtained by performing serial dilutions, e.g., eleven dilutions, of test compounds into assay plates using the PE/Cetus Pro/Pette pipetter. These dilutions are followed by radioligand and the bead-membrane mixture prepared as described above. After obtaining the specifically bound cpm, the data are fit to a one-site binding model using GraphPad Prism ver. 2.0. Estimated IC50 values are converted to Ki values using the Cheng-Prusoff equation (Cheng, Y. C. et al., Biochem. Pharmacol., 22, 3099-108, 1973).

T1 sequence (P50406 whole entry): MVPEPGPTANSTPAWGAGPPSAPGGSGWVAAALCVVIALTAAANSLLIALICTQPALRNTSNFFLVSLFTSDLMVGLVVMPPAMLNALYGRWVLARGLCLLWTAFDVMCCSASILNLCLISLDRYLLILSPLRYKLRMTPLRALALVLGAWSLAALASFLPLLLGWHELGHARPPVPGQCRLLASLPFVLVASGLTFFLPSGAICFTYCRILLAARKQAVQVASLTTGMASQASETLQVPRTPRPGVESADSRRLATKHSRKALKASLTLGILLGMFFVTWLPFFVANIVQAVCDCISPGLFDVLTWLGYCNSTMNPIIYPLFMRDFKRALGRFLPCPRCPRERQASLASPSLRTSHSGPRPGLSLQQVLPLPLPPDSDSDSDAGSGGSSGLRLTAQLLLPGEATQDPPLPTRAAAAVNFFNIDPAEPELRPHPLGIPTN

Regarding `CN1CCC(c2cccc(C(=O)N3CCC(c4ccc(F)cc4F)CC3)n2)C1` (stereo not shown) [Example 108, [4-(2,4-Difluoro-phenyl)-piperidin-1-yl]-[6-(1-methyl-pyrrolidin-3-yl)-pyridin-2-yl]-methanone], the inhibition at 1 µM came out at 95.4%.

Turning to `O=C(c1cccc(N2CCCNCC2)n1)N1CC[C@H](Oc2ccccc2F)C1` [Example 30, (6-[1,4]Diazepan-1-yl-pyridin-2-yl)-[(S)-3-(2-fluoro-phenoxy)-pyrrolidin-1-yl]-methanone], the inhibition at 1 µM stood at 98.8%.

Turning to `CN1CCC(c2cccc(C(=O)N3CCC(Oc4ccccc4F)CC3)n2)C1` (stereo not shown) [Example 113, [4-(2-Fluoro-phenoxy)-piperidin-1-yl]-[6-(1-methyl-pyrrolidin-3-yl)-pyridin-2-yl]-methanone], the inhibition at 1 µM stood at 97.8%.

Take `CN1CCCN(c2cccc(C(=O)N3CCCC[C@@H]3c3ccccc3F)n2)CC1` [Example 89, [(R)-2-(2-Fluoro-phenyl)-piperidin-1-yl]-[6-(4-methyl-[1,4]diazepan-1-yl)-pyridin-2-yl]-methanone]: the inhibition at 1 µM turned out to be 92.3%.

Regarding `Cc1cccc(F)c1C1CCN(C(=O)c2cccc(C3=CCNC3)n2)CC1` [Example 110, [6-(2,5-Dihydro-1H-pyrrol-3-yl)-pyridin-2-yl]-[4-(2-fluoro-6-methyl-phenyl)-piperidin-1-yl]-methanone], the inhibition at 1 µM came out at 98.2%.

Take `Cc1ccccc1C1CCN(C(=O)c2cccc(N3CCN(C4CC4)CC3)n2)CC1` [Example 114, [6-(4-Cyclopropyl-piperazin-1-yl)-pyridin-2-yl]-(4-o-tolyl-piperidin-1-yl)-methanone]: the inhibition at 1 µM turned out to be 64.5%.

On to `CN1CCC(c2cccc(C(=O)N3CCC(Oc4cccc(F)c4)CC3)n2)C1` (stereo not shown) [Example 16, [4-(3-Fluoro-phenoxy)-piperidin-1-yl]-[6-(1-methyl-pyrrolidin-3-yl)-pyridin-2-yl]-methanone], for which the inhibition at 1 µM amounted to 93.2%.

`CN1CC=C(c2cccc(C(=O)N3CCC(Oc4ccccc4F)CC3)n2)CC1` [Example 18, [4-(2-Fluoro-phenoxy)-piperidin-1-yl]-[1′-methyl-1′,2′,3′,6′-tetrahydro-[2,4′]bipyridinyl-6-yl)-methanone]: the inhibition at 1 µM worked out at 95.3%.

In the case of `Cc1ccccc1OC1CCN(C(=O)c2cccc(C3CCN(C)CC3)n2)CC1` [Example 95, (1′-Methyl-1′,2′,3′,4′,5′,6′-hexahydro-[2,4′]bipyridinyl-6-yl)-(4-o-tolyloxy-piperidin-1-yl)-methanone], the inhibition at 1 µM stood at 84%.

On to `CN1CCN(c2cccc(C(=O)N3CC(c4ccccc4F)C3)n2)CC1` [Example 83, [3-(2-Fluoro-phenyl)-azetidin-1-yl]-[6-(4-methyl-piperazin-1-yl)-pyridin-2-yl]-methanone], for which the inhibition at 1 µM was determined as 84.4%.

In the case of `CN1CCN(c2cccc(C(=O)N3CC(c4cccc(F)c4)C3)n2)CC1` [Example 84, [3-(3-Fluoro-phenyl)-azetidin-1-yl]-[6-(4-methyl-piperazin-1-yl)-pyridin-2-yl]-methanone], the inhibition at 1 µM was 78%.

In the case of `CN1CCN(c2cccc(C(=O)N3CCC(Cc4ccccc4F)CC3)n2)CC1` [Example 115, [4-(2-Fluoro-benzyl)-piperidin-1-yl]-[6-(4-methyl-piperazin-1-yl)-pyridin-2-yl]-methanone], the inhibition at 1 µM is 101%.

As for `CN1CCN(c2cccc(C(=O)N3CCC(Oc4ccc(F)cc4F)CC3)n2)CC1` [Example 109, [4-(2,4-Difluoro-phenoxy)-piperidin-1-yl]-[6-(4-methyl-piperazin-1-yl)-pyridin-2-yl]-methanone], the inhibition at 1 µM came to 97.8%.

For the compound `O=C(c1cccc(N2CCCNCC2)n1)N1CCC[C@@H](Oc2ccccc2F)C1` [Example 47, (6-[1,4]Diazepan-1-yl-pyridin-2-yl)-[(R)-3-(2-fluoro-phenoxy)-piperidin-1-yl]-methanone], the inhibition at 1 µM is 90.6%.

In the case of `Cc1ccccc1C1CN(C(=O)c2cccc(N3CCN(C)CC3)n2)C1` [Example 82, [6-(4-Methyl-piperazin-1-yl)-pyridin-2-yl]-(3-o-tolyl-azetidin-1-yl)-methanone], the inhibition at 1 µM is 91.3%.

As to `Cc1cccc([C@H]2CCCCN2C(=O)c2cccc(N3CCCN(C)CC3)n2)c1` [Example 81], the inhibition at 1 µM turned out to be 93.6%.

Turning to `Cc1ccccc1OC1CCN(C(=O)c2cccc(C3=CCN(C)CC3)n2)CC1` [Example 98, (1′-Methyl-1′,2′,3′,6′-tetrahydro-[2,4′]bipyridinyl-6-yl)-(4-o-tolyloxy-piperidin-1-yl)-methanone], the inhibition at 1 µM turned out to be 99.1%.

In the case of `CN1CCN(c2cccc(C(=O)N3CCC(F)(c4ccccc4F)CC3)n2)CC1` [Example 107, [4-Fluoro-4-(2-fluoro-phenyl)-piperidin-1-yl]-[6-(4-methyl-piperazin-1-yl)-pyridin-2-yl]-methanone], the inhibition at 1 µM came out at 97.2%.

`Cc1cccc(C2CN(C(=O)c3cccc(N4CCN(C)CC4)n3)C2)c1` [Example 91, [6-(4-Methyl-piperazin-1-yl)-pyridin-2-yl]-(3-m-tolyl-azetidin-1-yl)-methanone]: the inhibition at 1 µM was determined as 84.8%.

Take `Cc1ccccc1O[C@@H]1CCN(C(=O)c2cccc(N3CCCN(C)CC3)n2)C1` [Example 53, [6-(4-Methyl-[1,4]diazepan-1-yl)-pyridin-2-yl]-((R)-3-o-tolyloxy-pyrrolidin-1-yl)-methanone]: the inhibition at 1 µM worked out at 95.9%.

As to `O=S(=O)(c1cccc(N2CCNCC2)n1)N1CCC(c2ccccc2F)CC1` [Example 51, 1-{6-[4-(2-Fluoro-phenyl)-piperidine-1-sulfonyl]-pyridin-2-yl}-piperazine], the inhibition at 1 µM worked out at 97%.

Turning to `CN1CCC(c2cccc(C(=O)N3CCC(Oc4ccccc4F)CC3)n2)CC1` [Example 99, [4-(2-Fluoro-phenoxy)-piperidin-1-yl]-(1′-methyl-1′,2′,3′,4′,5′,6′-hexahydro-[2,4′]bipyridinyl-6-yl)-methanone], the inhibition at 1 µM was found to be 78.4%.

Turning to `CN1CCCN(c2cccc(C(=O)N3CC[C@@H](Oc4ccccc4F)C3)n2)CC1` [Example 46, [(R)-3-(2-Fluoro-phenoxy)-pyrrolidin-1-yl]-[6-(4-methyl-[1,4]diazepan-1-yl)-pyridin-2-yl]-methanone], the inhibition at 1 µM worked out at 85%.

With `CN1CC=C(c2cccc(C(=O)N3CCC(Oc4ccccc4C(F)(F)F)CC3)n2)CC1` [Example 101, (1′-Methyl-1′,2′,3′,6′-tetrahydro-[2,4′]bipyridinyl-6-yl)-[4-(2-trifluoromethyl-phenoxy)-piperidin-1-yl]-methanone], the inhibition at 1 µM is 96.9%.

As to `CN1CCN(c2cccc(C(=O)N3CC=C(c4ccccc4F)CC3)n2)CC1` [Example 21, [4-(2-Fluoro-phenyl)-3,6-dihydro-2H-pyridin-1-yl]-[6-(4-methyl-piperazin-1-yl)-pyridin-2-yl]-methanone], the inhibition at 1 µM was 97.8%.

With `Cc1ccc([C@@H](C)N(C)C(=O)c2cccc(N3CCN(C)CC3)n2)cc1` [Example 60, 6-(4-Methyl-piperazin-1-yl)-pyridine-2-carboxylic acid methyl-((R)-1-p-tolyl-ethyl)-amide], the inhibition at 1 µM was 73.8%.

Consider `CN1CCN(c2cccc(C(=O)N3CCCC(c4cccc(F)c4)C3)n2)CC1` (stereo not shown) [Example 94, [3-(3-Fluoro-phenyl)-piperidin-1-yl]-[6-(4-methyl-piperazin-1-yl)-pyridin-2-yl]-methanone], for which the inhibition at 1 µM is 90.8%.

Turning to `Cc1ccccc1C1CCCCN1C(=O)c1cccc(N2CCNCC2)n1` (stereo not shown) [Example 26, (6-Piperazin-1-yl-pyridin-2-yl)-(2-o-tolyl-piperidin-1-yl)-methanone], the inhibition at 1 µM came to 78.6%.

Consider `Cc1ccccc1C1CCN(S(=O)(=O)c2cccc(N3CCN(C)CC3)n2)CC1` [Example 78, 1-Methyl-4-[6-(4-o-tolyl-piperidine-1-sulfonyl)-pyridin-2-yl]-piperazine], for which the inhibition at 1 µM came to 98.5%.

As to `CN1CCN(c2cccc(C(=O)N3CCCC(c4ccccc4F)CC3)n2)CC1` (stereo not shown) [Example 116, [4-(2-Fluoro-phenyl)-azepan-1-yl]-[6-(4-methyl-piperazin-1-yl)-pyridin-2-yl]-methanone], the inhibition at 1 µM was 98.5%.

`Cc1cccc(F)c1C1CCN(C(=O)c2cccc(N3CCN(C)CC3)n2)CC1` [Example 23, [4-(2-Fluoro-6-methyl-phenyl)-piperidin-1-yl]-[6-(4-methyl-piperazin-1-yl)-pyridin-2-yl]-methanone]: the inhibition at 1 µM amounted to 98.3%.
